{"source": "ChEMBL document CHEMBL1201862", "about": "“PubChem BioAssay data set” (2004)", "target": "Envelope glycoprotein gp160 (Human immunodeficiency virus 1, UniProt Q6QLK5)", "sequence (Q6QLK5 whole entry, the tested form may be a part)": "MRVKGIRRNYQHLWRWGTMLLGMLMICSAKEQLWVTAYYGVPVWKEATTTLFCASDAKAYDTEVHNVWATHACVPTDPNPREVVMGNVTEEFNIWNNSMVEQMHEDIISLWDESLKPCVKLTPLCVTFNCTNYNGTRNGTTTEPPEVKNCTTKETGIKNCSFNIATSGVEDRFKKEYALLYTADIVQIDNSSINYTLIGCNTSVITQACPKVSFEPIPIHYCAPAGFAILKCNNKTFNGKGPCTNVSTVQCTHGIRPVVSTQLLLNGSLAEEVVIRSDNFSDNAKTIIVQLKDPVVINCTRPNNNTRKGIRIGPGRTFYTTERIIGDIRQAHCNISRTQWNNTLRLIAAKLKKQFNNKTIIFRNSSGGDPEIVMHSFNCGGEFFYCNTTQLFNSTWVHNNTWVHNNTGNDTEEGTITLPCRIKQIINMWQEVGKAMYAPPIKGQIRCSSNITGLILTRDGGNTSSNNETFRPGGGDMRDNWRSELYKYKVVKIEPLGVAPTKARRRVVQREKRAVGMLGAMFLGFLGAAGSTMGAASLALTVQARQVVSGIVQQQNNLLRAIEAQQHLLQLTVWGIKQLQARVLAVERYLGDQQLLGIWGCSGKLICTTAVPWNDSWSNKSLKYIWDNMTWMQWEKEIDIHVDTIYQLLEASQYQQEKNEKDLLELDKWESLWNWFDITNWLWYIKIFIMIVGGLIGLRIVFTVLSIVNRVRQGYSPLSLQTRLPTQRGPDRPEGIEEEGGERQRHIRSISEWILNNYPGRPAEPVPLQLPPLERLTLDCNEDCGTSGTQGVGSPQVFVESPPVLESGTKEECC", "assay": "cell-free HIV fusion peptide-binding blockers – biochemical, uHTS, fluorescence dequenching, […] (AID 1986)", "note": "Activity calls are given as the source filed them. Rule as the data show it: actives have a measured IC50 and inactives only a lower limit."}
{"compound": "O=C(O)CSc1cc(C(=O)c2cc(F)ccc2O)cn2c(=O)c3c(-c4ccccc4)csc3nc12", "values": [{"measurement": "IC50", "result": "14.9 µM (active)"}]}
{"compound": "N#Cc1c(-c2cccs2)nc(SCc2ccc(Cl)cc2)[nH]c1=O", "values": [{"measurement": "IC50", "result": "11.1 µM (active)"}]}
